# Test results from publication PMC12459522, “Design and synthesis of N-substituted-2-butyl-4-chloro-1H-imidazole derivatives as potential ACE inhibitors: in vitro study, in-silico analysis, and a multifaceted CSD-supported crystallographic investigation” (RSC Advances, 2025).
# Read-outs that look alike come from different tables or passages of the source.
# Target: ACE (Ovis aries, UniProt A0ACI6QSL6)
# Experiment: In vitro colorimetric ACE inhibition assay (HHL substrate, hippuric acid release, 410 nm)
# Format: biochemical, sheep
# Experimental: The ACE enzyme extract was preincubated with various concentrations of test compounds (4a–f) ranging from 250 nM to 25 μM, alongside the standard lisinopril (100–500 nM), for 10 minutes at 37 °C. The reaction was initiated by adding sodium borate buffer containing 0.3 M sodium chloride and 5 mM HHL, followed by a 30 minutes incubation at 37 °C. To terminate the reaction, 60 μL of 1 M HCl was added, which was subsequently followed by the addition of 120 μL of pyridine and 60 μL of benzene sulfonyl chloride for color development. The mixture was then cooled on ice for 5 minutes, and the resulting yellow color was measured spectrophotometrically at 410 nm. The reduction in HA concentration during the inhibition reaction, compared with that during the control reaction, was expressed as % inhibition, and the IC50 values were calculated via semilogarithmic plots. […] The IC50 values for the compounds and the standard lisinopril are presented in Table 1, and a bar graph comprising % inhibition is depicted in Fig. 2.
# Sheep kidney acetone powder was prepared in the laboratory according to a modified protocol by Hector et al.[24] Fresh sheep kidney tissue was homogenized with prechilled acetone (1 : 3) and vacuum-filtered using a Buchner funnel. Re-extraction was performed until the solid residue turned colorless. This residue was air-dried and sifted to obtain a uniform powder, which was stored in an airtight container at 0–4 °C.
# ACE was extracted from the prepared acetone powder as described by Jimsheena et al.[25] One gram of acetone powder was extracted via 10 mL of sodium borate buffer (0.05 M, pH 8.2) containing 0.3 M sodium chloride and 0.5% Triton X-100 at 4 °C for 18 hours. This extract was later centrifuged at 15 000g for 60 minutes at 4 °C. The supernatant was collected and dialyzed against the same buffer without Triton X-100 (3 L, the buffer was changed 3 times) for 24 hours. This extract was stored at −20 °C until further use. The specific activity was 0.8234 units per mg of protein.
# ACE activity was calculated by measuring the release of hippuric acid (HA) from the substrate hippuryl-histidyl-leucine (HHL). One unit of ACE activity is defined as the amount of enzyme that releases 1 μmol of HA per minute at 37 °C and pH 8.2. The ACE enzyme extract was preincubated with different concentrations of the test compounds (250 nM to 25 μM) and a standard drug solution (lisinopril, 100–500 nM) for 10 minutes at 37 °C. The reaction was initiated by the addition of sodium borate buffer (0.05 M, pH 8.2) containing 0.3 M sodium chloride and 5 mM HHL. The mixture was incubated at 37 °C for 30 minutes, followed by the addition of 60 μL of 1 M HCl to stop the reaction. This was followed by the addition of 120 μL of pyridine and 60 μL of […] sulfonyl chloride (BSC) for color development. The mixture was mixed gently and cooled on ice for 5 minutes. The yellow color developed was measured spectrophotometrically at 410 nm.[25] The reduced HA concentration in the inhibition reaction compared with the control reaction is expressed as % inhibition, which was calculated as:% inhibition = 100 − (Atest/Acontrol) × 100,where Atest = absorbance of the test reaction and Acontrol = absorbance of the control reaction.
# [1] = sheep kidney ACE extract, HHL substrate, 37 °C, pH 8.2, read-out: IC50 against the ACE
# Sequence of ACE (A0ACI6QSL6 entry or part of it): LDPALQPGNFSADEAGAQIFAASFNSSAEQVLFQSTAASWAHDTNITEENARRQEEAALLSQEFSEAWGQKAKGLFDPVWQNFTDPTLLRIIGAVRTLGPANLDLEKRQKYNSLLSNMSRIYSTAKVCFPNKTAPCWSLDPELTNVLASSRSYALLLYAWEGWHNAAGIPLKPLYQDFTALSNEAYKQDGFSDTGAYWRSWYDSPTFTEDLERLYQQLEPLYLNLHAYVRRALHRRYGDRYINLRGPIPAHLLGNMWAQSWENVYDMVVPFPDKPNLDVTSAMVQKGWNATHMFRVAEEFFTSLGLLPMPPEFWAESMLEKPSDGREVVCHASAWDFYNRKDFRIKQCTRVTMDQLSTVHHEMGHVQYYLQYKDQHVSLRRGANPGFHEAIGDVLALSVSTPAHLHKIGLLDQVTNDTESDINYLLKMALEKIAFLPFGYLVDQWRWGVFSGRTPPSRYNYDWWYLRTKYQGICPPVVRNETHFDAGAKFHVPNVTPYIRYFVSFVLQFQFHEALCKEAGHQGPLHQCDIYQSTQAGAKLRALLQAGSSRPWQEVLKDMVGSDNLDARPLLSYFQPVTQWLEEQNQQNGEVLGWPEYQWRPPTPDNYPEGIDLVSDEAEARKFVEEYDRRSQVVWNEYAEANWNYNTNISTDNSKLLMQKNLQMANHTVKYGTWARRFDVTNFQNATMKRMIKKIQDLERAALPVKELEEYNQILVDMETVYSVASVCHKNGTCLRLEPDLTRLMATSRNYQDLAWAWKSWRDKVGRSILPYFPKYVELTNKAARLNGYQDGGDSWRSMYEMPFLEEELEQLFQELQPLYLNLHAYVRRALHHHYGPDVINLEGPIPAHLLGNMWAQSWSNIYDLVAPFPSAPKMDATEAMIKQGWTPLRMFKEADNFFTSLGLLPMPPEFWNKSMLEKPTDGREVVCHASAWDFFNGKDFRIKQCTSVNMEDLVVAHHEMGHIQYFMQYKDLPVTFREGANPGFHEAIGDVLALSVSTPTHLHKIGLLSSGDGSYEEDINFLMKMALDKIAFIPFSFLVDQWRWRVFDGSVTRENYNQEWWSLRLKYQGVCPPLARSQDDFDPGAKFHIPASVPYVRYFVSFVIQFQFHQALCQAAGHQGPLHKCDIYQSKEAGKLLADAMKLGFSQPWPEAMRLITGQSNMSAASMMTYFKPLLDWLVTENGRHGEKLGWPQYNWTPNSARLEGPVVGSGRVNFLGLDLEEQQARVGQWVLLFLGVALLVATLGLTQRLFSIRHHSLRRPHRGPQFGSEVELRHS
compound,measurement,setting,value
2-(2-Butyl-4-chloro-5-(hydroxymethyl)-1H-imidazol-1-yl)-1-(naphthalen-1-yl)ethan-1-ol [4d],IC50,[1],2120 ± 15 nM
"CCCCc1nc(Cl)c(CO)n1CC(O)c1ccc(OC)cc1 (stereo not shown) [4a, 2-(2-Butyl-4-chloro-5-(hydroxymethyl)-1H-imidazol-1-yl)-1-(4-methoxyphenyl)ethan-1-ol]",IC50,[1],2470 ± 102 nM
"CCCCc1nc(Cl)c(CO)n1CC(O)c1ccc([N+](=O)[O-])cc1 (stereo not shown) [4b, 2-(2-Butyl-4-chloro-5-(hydroxymethyl)-1H-imidazol-1-yl)-1-(4-nitrophenyl)ethan-1-ol]",IC50,[1],1310 ± 26 nM
"CCCCc1nc(Cl)c(CO)n1CC(O)c1ccc(C)cc1 (stereo not shown) [4c, 2-(2-Butyl-4-chloro-5-(hydroxymethyl)-1H-imidazol-1-yl)-1-(p-tolyl)ethan-1-ol]",IC50,[1],1560 ± 65 nM
"CCCCc1nc(Cl)c(CO)n1CC(O)c1ccc(Cl)cc1 (stereo not shown) [4e, 2-(2-Butyl-4-chloro-5-(hydroxymethyl)-1H-imidazol-1-yl)-1-(4-chlorophenyl)ethan-1-ol]",IC50,[1],4890 ± 68 nM
"CCCCc1nc(Cl)c(CO)n1CC(O)c1ccc(F)cc1 (stereo not shown) [4f, 2-(2-Butyl-4-chloro-5-(hydroxymethyl)-1H-imidazol-1-yl)-1-(4-fluorophenyl)ethan-1-ol]",IC50,[1],7570 ± 85 nM
"NCCCC[C@H](N[C@@H](CCc1ccccc1)C(=O)O)C(=O)N1CCC[C@H]1C(=O)O [Lisinopril, reference compound]",IC50,,300 ± 135 nM
